Reference: US8592446B2, “[1,10]-phenanthroline derivatives for the treatment of neurodegenerative or haematological diseases” (Noscira, S.A., priority 2007, dated 2013)
Read-outs that look alike come from different tables or passages of the source.

How the values were obtained:
[1] = Screening pharmacokinetic study, plasma and brain (LC-MS/MS); assay type: in vivo, mice (C57BL6/J); settings: mice; for Kp / bioavailability / Tmax / half-life / AUC / Cmax: male, C57BL6/J, mouse; for Kp: brain and plasma
Description: The objective of this study is to evaluate the oral bioavailability and the plasmatic and brain pharmacokinetic parameters after oral and intravenous administration, thus determining if compounds of formula (I) are able to cross the blood brain barrier (BBB). […] Each compound was solved in appropriate excipients. In the case of oral administration, compound was administered by means of an oral gavage coupled to a syringe. In the intravenous administration animals, the test item was administered by a single injection with a syringe coupled to a 30 G needle.
Two animals were sacrificed (according to internal SOPs and following animal handling and welfare guidelines) at each selected extraction times (i.e. 30 min, 1 h, 2 h, 4 h, 6 h, 8 h and 24 hours after administration), and from each animal, both brain and blood samples were obtained. Plasma was extracted by centrifugation of the blood samples. Each sample time represents two male mice from which samples were obtained.
The method for the analysis of plasma and brain samples involved isolation of the analyte from the biological matrix by protein precipitation or solid-phase extraction followed by analysis using LC-MS/MS. Limits of quantification for these compounds were in the order of 2-10 ng/mL. The software Winnonlin professional version 5.2 was used for the calculation of pharmacokinetic parameters.
In the following tables, the abbreviations have the meaning indicated below: • AUC=Area under the curve • T1/2=Half-life • Tmax=the time after administration of a drug when the maximum plasma concentration is reached; when the rate of absorption equals the rate of elimination • Cmax=maximum plasma concentration of the drug • V. Adm. and Vol. Adm.=volume of administration

[2] = system: SH-SY5Y cells; experiment: Neuroprotection against Aβ25-35 toxicity (LDH assay); assay type: cell-based; settings: Homo sapiens, pre-treated 1 hour, 200 μM Aβ25-35 24 hours, read-out: Protect. beta-Amyloid25-35 (minimum concentration showing neuroprotection)
Description: In order to evaluate potential neuroprotection of compounds, SH-SY5Y cells, cultured in 96-well plates, were pre-treated for 1 hour with the compound at different concentrations and then exposed 24 hours to 200 μM Aβ25-35 (Neosystem) to induce extensive oxidative stress and cell death. The ability of the compound of protecting against this toxicity is then evaluated by measuring intracellular LDH, using the colorimetric LDH assay.
It is widely accepted that the neurotoxic activity of Aβ resides within amino acids 25-35 (see e.g. Yankner B A et al., (1990) Neurotrophic and neurotoxic effects of amyloid β protein: reversal by tachykinin neuropeptides; Science 250:279-282).

[3] = system: SH-SY5Y human neuroblastoma cells; experiment: Toxicity: LDH activity release in SH-SY5Y cells; assay type: cell-based; settings: 24 h; for Maximum concentration tested for toxicity: increasing concentrations from 1 μM up to 1 mM
Description: The potential effects on cell viability of the assayed compounds are assayed in SH-SY5Y human neuroblastoma cells, by quantification of Lactate dehydrogenase (LDH) activity release. SH-SY5Y human neuroblastoma cells are seeded into 96-well culture plates at 10^4 cells/well. The medium is then removed and the cells incubated with different concentrations of the compounds during 24 h. The compounds are tested at increasing concentrations starting from 1 μM, in fresh culture medium, in order to find the minimum concentration at which the compounds are toxic, up to a maximum of 1 mM. After 24 h, the medium is removed and cells attached to the bottom of the well are lysed by adding 50 μl of Krebs-Hepes; Triton X-100 1% during 5 minutes at room temperature. For LDH release quantification, the Roche cytotoxicity detection kit (Cat.
No. 11 644 793 001) is used. The LDH activity is measured by its absorbance at 492 nm with reference wavelength 620 nm.
In Table 1, for each compound the maximum concentration at which toxicity was tested is indicated in the second column. In the third column, it is indicated whether at this maximum concentration the compound was toxic or not. All the compounds, with the exception of Compound 3, resulted non-toxic at the concentration for which activity was found, in most of the cases even at a 1000-fold concentration. Thus, the compounds may be considered non-toxic.

[4] = system: Aβ (1-40) secretion by CHO7W cells (stably transfected with human APP751 wt cDNA); experiment: Inhibition of Aβ(1-40) secretion (ELISA, cellular supernatants); assay type: cell-based; settings: Aβ 1-40 ELISA
Source text: To quantitate Aβ secretion ELISA-based method was used. The assay consists in detection of antigen by selective monoclonal anti-Aβ-antibodies at two different epitopes forming a “Sandwich-complex”, that is detected by colorimetric measure due to the binding of a secondary antibody conjugated with peroxidase that catalyses the conversion of a substrate or chromogen, TMB, into a coloured product, directly proportional to the peptide quantity in the sample. The Aβ production has been analyzed by ELISA, using a colorimetric commercial kit: Immunoassay Kit Human β Amyloid 1-40 (Biosource).
Aβ (1-40) were quantified from cellular supernatants. An APP-transfected cell line has been employed for the experiments: CHO7W (stably transfected with human APP751 wt cDNA). The cells were grown in a culture medium consisting of DMEM supplemented with 2% Fetal bovine serum, 1% penicillin-streptomycin, 1% L-glutamine and 200 μg/ml G418. Cells are seeded in 96-well culture microplate, at 5000 cells/well and treatment with different compounds at different concentrations is performed 24 hour after seeding.
OM99-2 (H-5108, Bachem), a BACE inhibitor, was used as Aβ secretion reduction positive control in all the Aβ secretion studies. The cells were treated with this compound at 3 μM concentration, culture media were collected at 24 hours.

[5] = iv, brain AUC relative to plasma AUC, intravenous route, group 1-2 mg/kg, read-out: % AUC
[6] = iv, brain Cmax relative to plasma Cmax, intravenous route, group 1-2 mg/kg, read-out: % Cmax
[7] = po, 20 mg/kg, brain AUC relative to plasma AUC, 20 mg/kg oral route, read-out: % AUC
[8] = po, 20 mg/kg, brain Cmax relative to plasma Cmax, 20 mg/kg oral route, read-out: % Cmax
[9] = po, 200 mg/kg, brain AUC relative to plasma AUC, 200 mg/kg oral route, read-out: % AUC
[10] = po, 200 mg/kg, brain Cmax relative to plasma Cmax, 200 mg/kg oral route, read-out: % Cmax
[11] = plasma, 20 mg/kg oral route (low dose)
[12] = plasma, 200 mg/kg oral route (high dose)
[13] = intravenous route, group 1-2 mg/kg (Compound 4, 8: 1.00; 7: 1.20; 10: 2.00 mg/Kg), brain
[14] = intravenous route, group 1-2 mg/kg (Compound 4, 8: 1.00; 7: 1.20; 10: 2.00 mg/Kg), plasma

Kp [1, 5]	Kp [1, 6]	Kp [1, 7]	Kp [1, 8]	bioavailability [1, 11] [%]	bioavailability [1, 12] [%]	Tmax ([1]; 20 mg/kg oral route, brain) [min]	half-life ([1]; 20 mg/kg oral route, brain) [min]	AUC ([1]; 20 mg/kg oral route, plasma) [ng·h/mL]	Cmax ([1]; 20 mg/kg oral route, plasma) [ng/mL]	Tmax ([1]; 20 mg/kg oral route, plasma) [min]	half-life ([1]; 20 mg/kg oral route, plasma) [min]	Tmax [1, 13] [min]	AUC [1, 14] [ng·h/mL]	Cmax [1, 14] [ng/mL]	Tmax [1, 14] [min]	half-life [1, 14] [min]	Cmax Brain ([1]; 20 mg/kg oral route, brain) [ng/g]	Cmax Brain [1, 13] [ng/g]	SMILES	Maximum concentration tested for toxicity [3] [mM]	also measured
1.27	1.33	2.76	0.742	1.01	19.1	15	39.6	7.24	20.8	15	18	15	36	78.7	15	13.2	15.40	104.40	CSc1cc(/C=N/O)nc2c1ccc1cccnc12 [Compound 4, 4-Methylsulfanyl-[1,10]phenanthroline-2-carbaldehyde oxime]	1	Kp [1, 9]: 1.12; Kp [1, 10]: 1.5; Tmax ([1]; 200 mg/kg oral route, brain): 30 min; half-life ([1]; 200 mg/kg oral route, brain): 56.4 min; AUC ([1]; 200 mg/kg oral route, plasma): 1380 ng·h/mL; Cmax ([1]; 200 mg/kg oral route, plasma): 931 ng/mL; Tmax ([1]; 200 mg/kg oral route, plasma): 30 min; half-life ([1]; 200 mg/kg oral route, plasma): 55.2 min; half-life [1, 13]: 23.4 min; Cmax Brain ([1]; 200 mg/kg oral route, brain): 1394.40 ng/g; minimal effective concentration [2]: 0.5 µM; Toxic at maximum concentration tested (Yes/No) ([3]; at 1 mM): Yes; Inhibition secretion beta-amyloid (minimum concentration) [4]: 0.05 mM
1.04	3.71	0.278	0.417	7.11	3.19	240	43.8	378	106	18	99.6	4.8	319	104	60	268	19.62	386.10	CC(C)Sc1cc(/C=N/O)nc2c1ccc1cccnc12 [Compound 7, 4-Isopropylsulfanyl-[1,10]phenanthroline-2-carbaldehyde oxime]	1	AUC ([1]; 200 mg/kg oral route, plasma): 1700 ng·h/mL; Cmax ([1]; 200 mg/kg oral route, plasma): 1210 ng/mL; Tmax ([1]; 200 mg/kg oral route, plasma): 30 min; Toxic at maximum concentration tested (Yes/No) ([3]; at 1 mM): Yes; minimal effective concentration ([4]; read-out: Inhibition secretion beta-amyloid (minimum concentration)): 1 nM
0.0439	0.0524	0.0418	0.0621	6.67		15	108	325	396	15	234	15	244	690	15	66.6	24.60	36.10	COCCOc1cc(/C=N/O)nc2c1ccc1cccnc12 [Compound 8, 4-(2-Methoxy-ethoxy)-[1,10]phenanthroline-2-carbaldehyde oxime]	1	half-life [1, 13]: 10.8 min; minimal effective concentration [2]: 0.5 µM; Toxic at maximum concentration tested (Yes/No) ([3]; at 1 mM): No; Inhibition secretion beta-amyloid (minimum concentration) [4]: 1 mM
0.229	0.137	0.119	0.0876	12.5	77.6	60		184	149	60	240	4.8	148	136	4.8	486	13.07	18.7	CCN(CC)CCOc1cc(/C=N/O)nc2c1ccc1cccnc12 [Compound 10, 4-(2-Diethylamino-ethoxy)-[1,10]phenanthroline-2-carbaldehyde oxime]	0.001	Kp [1, 9]: 8.32; Kp [1, 10]: 1.96; Tmax ([1]; 200 mg/kg oral route, brain): 120 min; AUC ([1]; 200 mg/kg oral route, plasma): 11500 ng·h/mL; Cmax ([1]; 200 mg/kg oral route, plasma): 3950 ng/mL; Tmax ([1]; 200 mg/kg oral route, plasma): 30 min; half-life ([1]; 200 mg/kg oral route, plasma): 227 min; half-life [1, 13]: 156 min; Cmax Brain ([1]; 200 mg/kg oral route, brain): 7751.80 ng/g; minimal effective concentration [2]: 0.5 µM; Toxic at maximum concentration tested (Yes/No) ([3]; at 1 μM): Yes; Inhibition secretion beta-amyloid (minimum concentration) [4]: 1 mM
